# According to ChEMBL document CHEMBL1143925, “Deconstructing cytisine: The syntheses of (+/-)-cyfusine and (+/-)-cyclopropylcyfusine, fused ring analogs of cytisine” (Bioorg Med Chem Lett, 2008):
# How the values were obtained:
# [1] = target: Neuronal acetylcholine receptor; alpha4/beta2 (Rattus norvegicus, UniProt P09483+P12390); assay: Displacement of [3H]nicotine from alpha4beta2 nAChR in Sprague-Dawley rat brain membrane; type: cell membranes
# [2] = target: Neuronal acetylcholine receptor subunit alpha-7 (Rattus norvegicus, UniProt Q05941); assay: Displacement of [125I]alpha-bungarotoxin from rat alpha7 nAChR in GH4C1 cells; type: cell-based, GH4-C1
# Neuronal acetylcholine receptor subunit alpha-7, sequence (Q05941 whole entry): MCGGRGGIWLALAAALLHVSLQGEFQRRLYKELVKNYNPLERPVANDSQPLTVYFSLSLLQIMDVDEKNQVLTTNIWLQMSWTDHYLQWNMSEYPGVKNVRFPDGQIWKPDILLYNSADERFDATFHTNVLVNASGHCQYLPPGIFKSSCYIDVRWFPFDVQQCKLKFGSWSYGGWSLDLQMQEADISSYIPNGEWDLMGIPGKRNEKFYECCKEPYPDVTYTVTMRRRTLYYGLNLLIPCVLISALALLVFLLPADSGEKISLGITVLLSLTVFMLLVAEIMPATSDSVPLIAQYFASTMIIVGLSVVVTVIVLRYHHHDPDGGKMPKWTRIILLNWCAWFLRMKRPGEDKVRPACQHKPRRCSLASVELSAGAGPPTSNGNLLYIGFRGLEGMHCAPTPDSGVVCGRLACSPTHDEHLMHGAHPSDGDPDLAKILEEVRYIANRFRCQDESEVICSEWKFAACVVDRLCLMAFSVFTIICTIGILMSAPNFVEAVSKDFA
# [3] = target: Neuronal acetylcholine receptor; alpha3/beta4 (Homo sapiens, UniProt P30926+P32297); assay: Displacement of [3H]epibatidine from human alpha3beta4 nAChR in IMR32 cells; type: cell-based, IMR-32
# Neuronal acetylcholine receptor; alpha3/beta4, sequence (P30926 whole entry): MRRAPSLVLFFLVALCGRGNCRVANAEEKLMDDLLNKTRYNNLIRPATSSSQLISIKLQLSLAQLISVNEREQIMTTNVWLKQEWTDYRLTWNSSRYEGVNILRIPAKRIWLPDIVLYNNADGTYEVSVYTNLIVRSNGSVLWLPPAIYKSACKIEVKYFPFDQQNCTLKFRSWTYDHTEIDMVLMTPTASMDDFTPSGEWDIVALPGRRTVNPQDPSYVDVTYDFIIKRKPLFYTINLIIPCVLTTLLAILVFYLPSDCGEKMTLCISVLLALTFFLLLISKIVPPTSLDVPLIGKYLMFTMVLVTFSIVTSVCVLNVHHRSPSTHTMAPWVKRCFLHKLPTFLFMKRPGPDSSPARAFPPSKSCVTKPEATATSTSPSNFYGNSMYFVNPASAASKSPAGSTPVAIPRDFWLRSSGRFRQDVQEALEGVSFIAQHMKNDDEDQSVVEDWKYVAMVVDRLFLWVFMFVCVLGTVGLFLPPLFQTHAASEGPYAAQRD
# Neuronal acetylcholine receptor; alpha3/beta4, sequence (P32297 whole entry): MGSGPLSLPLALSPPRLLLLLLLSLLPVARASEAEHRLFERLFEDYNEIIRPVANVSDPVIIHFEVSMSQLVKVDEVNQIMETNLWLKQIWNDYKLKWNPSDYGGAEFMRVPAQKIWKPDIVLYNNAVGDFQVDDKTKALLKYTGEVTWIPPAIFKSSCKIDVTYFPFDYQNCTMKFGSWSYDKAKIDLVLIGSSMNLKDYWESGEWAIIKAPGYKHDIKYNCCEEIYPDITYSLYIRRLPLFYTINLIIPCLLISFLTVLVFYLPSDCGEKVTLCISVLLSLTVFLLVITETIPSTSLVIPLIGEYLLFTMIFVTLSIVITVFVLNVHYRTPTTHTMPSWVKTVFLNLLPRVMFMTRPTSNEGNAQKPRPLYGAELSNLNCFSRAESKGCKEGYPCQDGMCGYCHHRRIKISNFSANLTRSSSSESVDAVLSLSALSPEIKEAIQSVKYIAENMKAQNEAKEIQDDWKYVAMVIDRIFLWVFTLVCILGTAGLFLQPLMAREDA
# Neuronal acetylcholine receptor; alpha4/beta2, sequence (P09483 whole entry): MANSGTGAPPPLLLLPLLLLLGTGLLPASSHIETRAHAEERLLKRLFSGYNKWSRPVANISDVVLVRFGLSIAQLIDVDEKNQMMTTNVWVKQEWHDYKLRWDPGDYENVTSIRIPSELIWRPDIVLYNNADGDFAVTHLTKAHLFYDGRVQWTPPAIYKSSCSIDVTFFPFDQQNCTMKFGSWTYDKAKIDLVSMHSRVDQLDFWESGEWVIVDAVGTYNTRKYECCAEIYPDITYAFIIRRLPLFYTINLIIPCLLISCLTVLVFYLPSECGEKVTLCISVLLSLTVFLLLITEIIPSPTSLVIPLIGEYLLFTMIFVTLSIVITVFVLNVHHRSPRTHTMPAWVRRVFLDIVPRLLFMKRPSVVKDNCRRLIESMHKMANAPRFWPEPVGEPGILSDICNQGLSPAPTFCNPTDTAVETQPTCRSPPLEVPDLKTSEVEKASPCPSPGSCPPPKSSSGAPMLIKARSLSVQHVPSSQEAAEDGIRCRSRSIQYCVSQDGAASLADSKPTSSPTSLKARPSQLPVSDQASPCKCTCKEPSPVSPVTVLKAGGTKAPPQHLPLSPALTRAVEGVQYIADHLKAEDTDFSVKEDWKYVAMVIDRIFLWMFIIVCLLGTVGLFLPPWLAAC
# Neuronal acetylcholine receptor; alpha4/beta2, sequence (P12390 whole entry): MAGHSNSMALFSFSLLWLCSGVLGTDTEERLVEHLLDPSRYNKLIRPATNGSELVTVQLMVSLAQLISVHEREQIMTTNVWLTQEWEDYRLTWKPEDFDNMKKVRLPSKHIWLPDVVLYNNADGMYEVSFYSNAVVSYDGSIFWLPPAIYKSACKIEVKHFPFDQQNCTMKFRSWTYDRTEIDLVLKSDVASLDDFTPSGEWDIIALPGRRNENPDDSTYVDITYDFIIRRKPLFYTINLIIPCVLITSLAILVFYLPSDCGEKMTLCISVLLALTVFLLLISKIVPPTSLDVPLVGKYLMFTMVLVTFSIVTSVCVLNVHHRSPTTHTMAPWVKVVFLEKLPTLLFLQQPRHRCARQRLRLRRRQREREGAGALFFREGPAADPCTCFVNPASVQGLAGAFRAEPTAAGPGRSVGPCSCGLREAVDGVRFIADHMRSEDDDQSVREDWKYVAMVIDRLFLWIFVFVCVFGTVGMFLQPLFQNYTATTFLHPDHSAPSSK
SMILES,Ki [1] [nM],Ki [2] [nM],Ki [3] [nM]
O=c1cccc2n1CC13CNCC21C3 (racemic) [CYCLOPROPYLCYFUSINE],144,> 500,> 500
O=c1cccc2n1CC1CNCC21 (racemic) [CYFUSINE],16,> 500,> 500
O=c1cccc2n1C[C@@H]1CNC[C@H]2C1 [CYTISINICLINE],0.43,5820,1560
